Read-outs that look alike come from different tables or passages of the source.
Legend:
[1] = system: Pseudomonas aeruginosa, Staphylococcus aureus, Serratia marcescens, Candida albicans, Fusarium solani; assay: Stand-Alone Procedure, secondary performance criteria (entrance into the regimen test); format: cell-based, bacteria, yeast and mold; details: for 10 minute entrance into the regimen: 10 min; for secondary performance criteria: 4.0 ppm, Example 12
Protocol: This Example illustrates the microbiocidal efficacy of solutions according to the present invention. The antimicrobial efficacy of each of various compositions for the chemical disinfection of contact lenses was evaluated. Microbial challenge inoculums were prepared using Pseudomonas aeruginosa (ATCC 9027), Staphylococcus aureus (ATCC 6538), Serratia marcescens (ATCC 13880), Candida albicans (ATCC 10231), and Fusarium solani (ATCC 36031). The test organisms were cultured on appropriate agar and the cultures were harvested using sterile DPBST (Dulbecco's Phosphate Buffered Saline plus 0.05% w/v polysorbate 80) or a suitable diluent and transferred to a suitable vessel. Spore suspensions were filtered through sterile glass wool to remove hyphal fragments. Serratia marcescens, as appropriate, was filtered (eg., through a 1.2 μ filter) to clarify the suspension. After harvesting, the suspension was centrifuged at no more than 5000× g for a maximum of 30 minutes at 20-25° C. The supernatant was poured off and resuspended in DPBST or other suitable diluent. The suspension was centrifuged a second time, and resuspended in DPBST or other suitable diluent. All challenge bacterial and fungal cell suspensions were adjusted with DPBST or other suitable diluent to 1×10^7 -10^8 cfu/mL. The appropriate cell concentration may be estimated by measuring the turbidity of the suspension, for example using a spectrophotometer at a preselected wavelength, for example 490 nm. One tube was prepared containing a minimum of 10 mL of test solution per challenge organism. Each tube of the solution to be tested was inoculated with a suspension of the test organism sufficient to provide a final count of 1.0×10^5 -10^6 cfu/mL, the volume of the inoculum not exceeding 1% of the sample volume. Dispersion of the inoculum was ensured by vortexing the sample for at least 15 seconds. The inoculated product was stored at 10-25° C. Aliquots in the amount of 1.0 mL were taken of the inoculated product for determination of viable counts after certain time periods of disinfection. […] The viable count of organisms was determined in appropriate dilutions by preparation of triplicate plates of trypticase soy (TSA) agar for bacteria and Sabouraud dextrose agar (SDA) for mold and yeast. […] The average number of colony forming units was determined on countable plates. […] The microbial reduction was then calculated at the specified time points. […]
(§1) The solutions were evaluated based on the performance requirement referred to as the "Stand-Alone Procedure for Disinfecting Products" (hereafter the "stand-alone test") and is based on the Disinfection Efficacy Testing for contact lens care products under the Draft Premarket Notification (510(k)) Guidance Document For Contact Lens Care Products dated Apr. […]

[2] = system: Pseudomonas aeruginosa, Staphylococcus aureus, Serratia marcescens, Candida albicans, Fusarium solani; assay: Stand-Alone Procedure for Disinfecting Products, primary performance criteria; format: cell-based, bacteria, yeast and mold; details: for one hour stand-alone test for bacteria: 1 hr, bacteria only
Protocol: (§2) This Example illustrates the microbiocidal efficacy of solutions according to the present invention. The antimicrobial efficacy of each of various compositions for the chemical disinfection of contact lenses was evaluated. Microbial challenge inoculums were prepared using Pseudomonas aeruginosa (ATCC 9027), Staphylococcus aureus (ATCC 6538), Serratia marcescens (ATCC 13880), Candida albicans (ATCC 10231), and Fusarium solani (ATCC 36031). The test organisms were cultured on appropriate agar and the cultures were harvested using sterile DPBST (Dulbecco's Phosphate Buffered Saline plus 0.05% w/v polysorbate 80) or a suitable diluent and transferred to a suitable vessel. Spore suspensions were filtered through sterile glass wool to remove hyphal fragments. Serratia marcescens, as appropriate, was filtered (eg., through a 1.2 μ filter) to clarify the suspension. After harvesting, the suspension was centrifuged at no more than 5000× g for a maximum of 30 minutes at 20-25° C. The supernatant was poured off and resuspended in DPBST or other suitable diluent. The suspension was centrifuged a second time, and resuspended in DPBST or other suitable diluent. All challenge bacterial and fungal cell suspensions were adjusted with DPBST or other suitable diluent to 1×10^7 -10^8 cfu/mL. The appropriate cell concentration may be estimated by measuring the turbidity of the suspension, for example using a spectrophotometer at a preselected wavelength, for example 490 nm. One tube was prepared containing a minimum of 10 mL of test solution per challenge organism. Each tube of the solution to be tested was inoculated with a suspension of the test organism sufficient to provide a final count of 1.0×10^5 -10^6 cfu/mL, the volume of the inoculum not exceeding 1% of the sample volume. Dispersion of the inoculum was ensured by vortexing the sample for at least 15 seconds. The inoculated product was stored at 10-25° C. Aliquots in the amount of 1.0 mL were taken of the inoculated product for determination of viable counts after certain time periods of disinfection. The time points for the bacteria were 25, 50, 75, and 100% of the minimum disinfection time. Yeast and mold were tested at an additional timepoint of at least 400% of the minimum disinfection time. The suspension was mixed well by vortexing vigorously for at least 5 second. The 1.0 mL aliquots removed at the specified time intervals were subjected to a suitable series of decimal dilutions in validated neutralizing media. The suspensions were mixed vigorously and incubated for a suitable period of time to allow for neutralization of the microbial agent. The viable count of organisms was determined in appropriate dilutions by preparation of triplicate plates of trypticase soy (TSA) agar for bacteria and Sabouraud dextrose agar (SDA) for mold and yeast. The bacterial recovery plates were incubated at 30-35° C. for 2-4 days. The yeast was incubated at 20-30° C. for 2-4 days and mold recovery plates at 20-25° C. for 3-7 days. The average number of colony forming units was determined on countable plates. Countable plates refer to 30-300 cfu/plates for bacteria and yeast, and 8 to 80 cfu/plate for mold except when colonies are observed only for the 10^0 or 10^-1 dilution plates. The microbial reduction was then calculated at the specified time points. […] Following inoculation in a validated neutralizing broth and incubation for an appropriate period of time, the inoculum control must be between 1.0×10^5 -1.0×10^6 cfu/mL
as §1, with “Apr. 1, 1996, prepared by the U.S. Food and Drug Administration, Division of Ophthalmic Devices.” for “Apr.”

[3] = system: Pseudomonas aeruginosa (ATCC 9027); assay: Antimicrobial efficacy (stand-alone log reduction), P. aeruginosa; format: cell-based; details: for log reduction at 4 µg/mL: 4.0 ppm alexidine in ReNu MPS
Protocol: as §2
as §1, with “Apr. 1, 1996, prepared by the U.S. Food and Drug Administration, Division of Ophthalmic Devices.” for “Apr.”

CCCCC(CC)CNC(=N)NC(=N)NCCCCCCNC(=N)NC(=N)NCC(CC)CCCC.Cl.Cl (centres unmarked) [Alexidine.2HCl, 1,1 '-hexamethylenebis(5-(2-ethylhexyl)-biguanide) dihydrochloride]
10 minute entrance into the regimen ([1]; 1.0 ppm): does not pass the 10 minute entrance into the regimen | 10 minute entrance into the regimen ([1]; 2.0 ppm): passes the 10 minute entrance into the regimen | secondary performance criteria ([1]; soak 2.5 min): failed in all cases | secondary performance criteria ([1]; soak 10 min): met in all cases | one hour stand-alone test for bacteria ([2]; 1.0 ppm): will not pass the one hour stand-alone test for bacteria | one hour stand-alone test for bacteria ([2]; 2.0 ppm): passes the one hour stand-alone test for bacteria | one hour stand-alone test ([2]; 4.0 ppm alexidine in ReNu MPS): passed the one hour stand-alone test | stand-alone test ([2]; 4.0 ppm, Example 6, 30, 45, 60 min, no rub or rinse): able to pass a stand-alone test (with no rub or rinse) at the 30 minute time point, 45 time point and the 60 minute time point | stand-alone test ([2]; 4.0 ppm, Example 7, 30, 45, 60 min): passed the stand alone test at 30 minutes, 45 minutes, and 60 minutes | stand-alone test ([2]; 4.0 ppm, Example 7, 15 min, with respect to Serratia marcescens and Candida albicans): only just passed the 15 minute stand-alone test | stand-alone test ([2]; 4.0 ppm, Example 8, 30, 45, 60 min, without rubbing): passed the stand-alone test (without rubbing) at 30 minutes, 45 minutes, and 60 minutes | stand-alone test ([2]; 4.0 ppm, Example 8, 15 min, without rubbing): did not pass the test at 15 minutes | time required to pass a stand-alone procedure without rubbing ([2]; 4.0 ppm, Tables 3, 4 and 5): at least 30 minutes | log reduction at 4 ppm ([3]; ATCC9027, 2.5 min, 4.0 ppm, aged 18 months, Exp. 1, 2.5 min, read-out: Log Reduction): 2.4 | log reduction at 4 ppm ([3]; ATCC9027, 2.5 min, 4.0 ppm, aged 18 months, Exp. 2, 2.5 min, read-out: Log Reduction): 1.9 | log reduction at 4 ppm ([3]; ATCC9027, 2.5 min, 4.0 ppm, aged 18 months, Exp. 3, 2.5 min, read-out: Log Reduction): 2.7 | log reduction at 1 ppm ([3]; ATCC9027, 5 min, 1.0 ppm, read-out: Log Reduction at 5 Minutes): 0.5 | log reduction at 2 ppm ([3]; ATCC9027, 5 min, 2.0 ppm, read-out: Log Reduction at 5 Minutes): 3 | log reduction at 3 ppm ([3]; ATCC9027, 5 min, 3.0 ppm, read-out: Log Reduction at 5 Minutes): 3.8 | log reduction at 4 ppm ([3]; ATCC9027, 5 min, 4.0 ppm, aged 18 months, Exp. 1, 5.0 min, read-out: Log Reduction): 3.2 | log reduction at 4 ppm ([3]; ATCC9027, 5 min, 4.0 ppm, aged 18 months, Exp. 2, 5.0 min, read-out: Log Reduction): 3.2 | log reduction at 4 ppm ([3]; ATCC9027, 5 min, 4.0 ppm, aged 18 months, Exp. 3, 5.0 min, read-out: Log Reduction): 3.1 | log reduction at 4 ppm ([3]; ATCC9027, 5 min, 4.0 ppm, read-out: Log Reduction at 5 Minutes): 3.7 | log reduction at 5 ppm ([3]; ATCC9027, 5 min, 5.0 ppm, read-out: Log Reduction at 5 Minutes): > 5 | log reduction at 4 ppm ([3]; ATCC9027, 0.125 h, 4.0 ppm, aged 18 months, Exp. 1, 7.5 min, read-out: Log Reduction): 3.4 | log reduction at 4 ppm ([3]; ATCC9027, 0.125 h, 4.0 ppm, aged 18 months, Exp. 2, 7.5 min, read-out: Log Reduction): 3.8 | log reduction at 4 ppm ([3]; ATCC9027, 0.125 h, 4.0 ppm, aged 18 months, Exp. 3, 7.5 min, read-out: Log Reduction): 4.1 | log reduction at 1 ppm ([3]; ATCC9027, 10 min, 1.0 ppm, read-out: Log Reduction at 10 Minutes): 3.2 | log reduction at 2 ppm ([3]; ATCC9027, 10 min, 2.0 ppm, read-out: Log Reduction at 10 Minutes): 4.3 | log reduction at 3 ppm ([3]; ATCC9027, 10 min, 3.0 ppm, read-out: Log Reduction at 10 Minutes): > 5 | log reduction at 4 ppm ([3]; ATCC9027, 10 min, 4.0 ppm, aged 18 months, Exp. 1, 10.0 min, read-out: Log Reduction): > 4.8 | log reduction at 4 ppm ([3]; ATCC9027, 10 min, 4.0 ppm, aged 18 months, Exp. 2, 10.0 min, read-out: Log Reduction): > 4.8 | log reduction at 4 ppm ([3]; ATCC9027, 10 min, 4.0 ppm, aged 18 months, Exp. 3, 10.0 min, read-out: Log Reduction): 4.9 | log reduction at 4 ppm ([3]; ATCC9027, 10 min, 4.0 ppm, read-out: Log Reduction at 10 Minutes): > 5 | log reduction at 5 ppm ([3]; ATCC9027, 10 min, 5.0 ppm, read-out: Log Reduction at 10 Minutes): > 5 | log reduction at 4 ppm ([3]; ATCC9027, 0.25 h): 4 | log reduction at 4 ppm ([3]; ATCC9027, 0.25 h, 4.0 ppm, Ex. 7, different lot aged 18 months, 15 min, read-out: Log Reduction): 4.2 | log reduction at 4 ppm ([3]; ATCC9027, 0.25 h, 4.0 ppm, Ex. 8, different batch aged 19 months at 25 °C, 15 min, read-out: Log Reduction): 3.3 | log reduction at 4 ppm ([3]; ATCC9027, 0.5 h, 4.0 ppm, Ex. 6, aged 19 months at 25 °C, 30 min, read-out: Log Reduction): > 4.8 | log reduction at 4 ppm ([3]; ATCC9027, 0.5 h, 4.0 ppm, Ex. 7, different lot aged 18 months, 30 min, read-out: Log Reduction): > 4.8 | log reduction at 4 ppm ([3]; ATCC9027, 0.5 h, 4.0 ppm, Ex. 8, different batch aged 19 months at 25 °C, 30 min, read-out: Log Reduction): > 4.8 | log reduction at 4 ppm ([3]; ATCC9027, 0.75 h, 4.0 ppm, Ex. 6, aged 19 months at 25 °C, 45 min, read-out: Log Reduction): > 4.8 | log reduction at 4 ppm ([3]; ATCC9027, 0.75 h, 4.0 ppm, Ex. 7, different lot aged 18 months, 45 min, read-out: Log Reduction): > 4.8 | log reduction at 4 ppm ([3]; ATCC9027, 0.75 h, 4.0 ppm, Ex. 8, different batch aged 19 months at 25 °C, 45 min, read-out: Log Reduction): > 4.8 | log reduction at 1 ppm ([3]; ATCC9027, 1 h, 1 ppm, 1 hr, read-out: Log Reduction): > 5 | log reduction at 2 ppm ([3]; ATCC9027, 1 h, 2 ppm, 1 hr, read-out: Log Reduction): > 5 | log reduction at 3 ppm ([3]; ATCC9027, 1 h, 3 ppm, 1 hr, read-out: Log Reduction): > 5 | log reduction at 4 µg/mL ([3]; ATCC9027, 1 h, 1 hr): > 4.8 | log reduction at 4 ppm ([3]; ATCC9027, 1 h, 4 ppm, 1 hr, read-out: Log Reduction): > 5 | log reduction at 4 ppm ([3]; ATCC9027, 1 h, 4.0 ppm, Ex. 6, aged 19 months at 25 °C, 60 min, read-out: Log Reduction): > 4.8 | log reduction at 4 ppm ([3]; ATCC9027, 1 h, 4.0 ppm, Ex. 7, different lot aged 18 months, 60 min, read-out: Log Reduction): > 4.8 | log reduction at 4 ppm ([3]; ATCC9027, 1 h, 4.0 ppm, Ex. 8, different batch aged 19 months at 25 °C, 60 min, read-out: Log Reduction): > 4.8 | log reduction at 5 ppm ([3]; ATCC9027, 1 h, 5 ppm, 1 hr, read-out: Log Reduction): > 5 | log reduction at 4 µg/mL ([3]; ATCC9027, 2 h, 2 hr): > 4.8 | log reduction at 4 µg/mL ([3]; ATCC9027, 3 h, 3 hr): > 4.8 | log reduction at 4 µg/mL ([3]; ATCC9027, 4 h, 4 hr): > 4.8
